Data published in paper PMC12603070, “A high-throughput screening approach to discover potential colorectal cancer chemotherapeutics: repurposing drugs to identify novel disruptors of 14-3-3 proteins” (Cell Death & Disease, 2025).
Where two headings read alike, the source gives them in different places. Blank lines part the entries; values can stand above or below the compound they belong to.

Legend:
[1] = target: T1, 14-3-3ζ:BAD-112-136F interactions (Homo sapiens, UniProt P63104); test: BRET sensor screen for disruption of 14-3-3ζ-Rluc8:BAD-112-136F-mCitrine in living NIH-3T3 cells; format: cell-based, murine; parameters: inhibition: dose or concentration left out as unconfirmed; BRET reduction on NIH-3T3: unit not given here; settings: for inhibition / inhibition at 20 µM: NIH3T3, 3 h, read-out: BRET reduction on NIH-3T3
T1 construct: expressed in transfected cells; host or cells: NIH-3T3 fibroblasts, bi-directional pBI-CMV1 plasmid
T1 sequence (P63104 1-245): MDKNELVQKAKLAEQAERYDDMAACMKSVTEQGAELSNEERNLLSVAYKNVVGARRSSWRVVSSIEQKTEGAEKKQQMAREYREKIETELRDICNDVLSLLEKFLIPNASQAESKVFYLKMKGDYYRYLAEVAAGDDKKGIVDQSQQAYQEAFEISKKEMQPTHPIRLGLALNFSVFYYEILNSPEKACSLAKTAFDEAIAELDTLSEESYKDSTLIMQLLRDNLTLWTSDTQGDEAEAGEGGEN
In short: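 NIH-3T3 cells were transfected with the BRET sensor two days beforehand, then replated on poly-L-ornithine-coated plates and grown 24 h at 37 °C. Medium was then replaced with Krebs buffer (pH 7.4). Z′-score was calculated to judge HTS robustness.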

NIH-3T3 cells = test: Hoechst/propidium iodide cell death assay in NIH-3T3; format: cell-based; settings: for cytotoxicity at 20 µM: Mus musculus, NIH3T3, 24 h, read-out: Percentage of cell death % 24h NIH3t3
Description: (§1) A high-content imaging system (PerkinElmer; Operetta CLS), was used to quantify cell death and apoptosis by calculating the number of propidium iodide-positive cells relative to Hoechst-positive cells, and the number of Annexin V-positive cells relative to Hoechst-positive cells, respectively.

HT-29 cells = test: Hoechst/propidium iodide cell death assay in HT-29; format: cell-based, human; settings: for cytotoxicity at 20 µM: Homo sapiens; for %Cell death HT-29: time not given
Description: as §1

Caco-2 cells = format: cell-based; settings: for Percentage of cell death % 24h CACO-2: 20 µM; for Percentage of cell death % 48h, Caco-2: 20 μM
Description: as §1

[2] = NIH-3T3 cells, hits from the primary screen
[3] = NIH-3T3 expressing BRET sensor, 20 µM, 3 h
[4] = HT-29, 24 h, 20 µM, 24 h, read-out: Percentage of cell death % 24h HT-29
[5] = HT-29, 48 h, HT-29, 48h, 20 μM, read-out: Percentage of cell death % 48h, HT-29

inhibition [1, 2]: 28.7%
inhibition at 20 µM [1, 3]: 28.7%
Structure (SMILES): CCc1cc(/C(C)=N/OCc2ccc(C3CCCCC3)c(C(F)(F)F)c2)ccc1CN1CC(C(=O)O)C1 [BAF312 (Siponimod), Siponimod]
cytotoxicity at 20 µM (NIH-3T3 cells; 20 µM, 24 h): 0.738%
Percentage of cell death % 48h, NIH3T3 (NIH-3T3 cells): 0.7911%
cytotoxicity at 20 µM (HT-29 cells; [4]): 0.683%
cytotoxicity at 20 µM (HT-29 cells; [5]): 1.58%
Percentage of cell death % 24h CACO-2 (Caco-2 cells): 2.6196%
Percentage of cell death % 48h, Caco-2 (Caco-2 cells): 2.567%

inhibition [1, 2]: 27.1%
inhibition at 20 µM [1, 3]: 27.1%
Structure (SMILES): CCOC(=O)C1=C(C)NC(C)=C(C(=O)OCC)C1c1ccccc1/C=C/C(=O)OC(C)(C)C [Lacidipine]
cytotoxicity at 20 µM (NIH-3T3 cells; 20 µM, 24 h): 0.275%
Percentage of cell death % 48h, NIH3T3 (NIH-3T3 cells): 0.2227%
cytotoxicity at 20 µM (HT-29 cells; [4]): 1.94%
cytotoxicity at 20 µM (HT-29 cells; [5]): 2.6%
Percentage of cell death % 24h CACO-2 (Caco-2 cells): 4.66%
Percentage of cell death % 48h, Caco-2 (Caco-2 cells): 4.938%

inhibition [1, 2]: 42.6%
inhibition at 20 µM [1, 3]: 42.6%
Structure (SMILES): COc1ccc2c(O[C@@H]3C[C@H]4C(=O)N[C@]5(C(=O)NS(=O)(=O)C6CC6)C[C@H]5/C=C\CCCCN(C)C(=O)[C@@H]4C3)cc(-c3nc(C(C)C)cs3)nc2c1C [Simeprevir]
cytotoxicity at 20 µM (NIH-3T3 cells; 20 µM, 24 h): 19.3%
Percentage of cell death % 48h, NIH3T3 (NIH-3T3 cells): 93.5636%
%Cell death HT-29 (HT-29 cells; HT-29): 70.9%
cytotoxicity at 20 µM (HT-29 cells; [4]): 38.8%
cytotoxicity at 20 µM (HT-29 cells; [5]): 70.9%
Percentage of cell death % 24h CACO-2 (Caco-2 cells): 3.948%
Percentage of cell death % 48h, Caco-2 (Caco-2 cells): 5.542%
%Cell death Caco-2 (Caco-2 cells; time not given, text says 48 h): 5.5%

inhibition [1, 2]: 44%
inhibition at 20 µM [1, 3]: 44%
Structure (SMILES): CO/N=C1\C[C@]2(C[C@@H]3C[C@@H](C/C=C(\C)C[C@@H](C)/C=C/C=C4\CO[C@@H]5[C@H](O)C(C)=C[C@@H](C(=O)O3)[C@]45O)O2)O[C@H](/C(C)=C/C(C)C)[C@H]1C [Moxidectin]
cytotoxicity at 20 µM (NIH-3T3 cells; 20 µM, 24 h): 80.7%
Percentage of cell death % 48h, NIH3T3 (NIH-3T3 cells): 68.7026%
%Cell death HT-29 (HT-29 cells; HT-29): 78.4%
cytotoxicity at 20 µM (HT-29 cells; [4]): 8.61%
cytotoxicity at 20 µM (HT-29 cells; [5]): 78.4%
%Cell death Caco-2 (Caco-2 cells): 8.4%

The next lines start with the compound.

Structure (SMILES): COC(=O)[C@]12CCC(C)(C)C[C@H]1[C@H]1C(=O)C=C3[C@@]4(C)C=C(C#N)C(=O)C(C)(C)[C@@H]4CC[C@@]3(C)[C@]1(C)CC2 [Bardoxolone methyl]
BRET reduction on NIH-3T3 [1, 2]: 39.4225
BRET reduction on NIH-3T3 [1, 3]: 39.4225
Percentage of cell death % 24h NIH3t3 (NIH-3T3 cells; 20 µM, 24 h): 87.0027%
Percentage of cell death % 48h, NIH3T3 (NIH-3T3 cells): 72.1638%
Percentage of cell death % 24h HT-29 (HT-29 cells; 20 µM, 24 h): 43.1592%
Percentage of cell death % 48h, HT-29 (HT-29 cells; HT-29, 48h, 20 μM): 67.5309%
%Cell death HT-29 (HT-29 cells; HT-29): 67.5%
%Cell death Caco-2 (Caco-2 cells): 19.2%

Structure (SMILES): CCCCCCCCCCCC[N+](C)(C)CCOc1ccccc1 [Domiphen Bromide]
inhibition [1, 2]: 49%
inhibition at 20 µM [1, 3]: 49%
cytotoxicity at 20 µM (NIH-3T3 cells; 20 µM, 24 h): 81.2%
Percentage of cell death % 48h, NIH3T3 (NIH-3T3 cells): 69.1517%
cytotoxicity at 20 µM (HT-29 cells; [4]): 15%
cytotoxicity at 20 µM (HT-29 cells; [5]): 57.1%
Percentage of cell death % 24h CACO-2 (Caco-2 cells): 24.2566%
Percentage of cell death % 48h, Caco-2 (Caco-2 cells): 80.35%

Structure (SMILES): C[C@@H](NCCCc1cccc(C(F)(F)F)c1)c1cccc2ccccc12 [Cinacalcet]
inhibition [1, 2]: 47.7%
inhibition at 20 µM [1, 3]: 47.7%
cytotoxicity at 20 µM (NIH-3T3 cells; 20 µM, 24 h): 75.5%
Percentage of cell death % 48h, NIH3T3 (NIH-3T3 cells): 90.5083%
%Cell death HT-29 (HT-29 cells; HT-29): 70.3%
cytotoxicity at 20 µM (HT-29 cells; [4]): 30%
cytotoxicity at 20 µM (HT-29 cells; [5]): 70.3%
Percentage of cell death % 24h CACO-2 (Caco-2 cells): 40.5775%
Percentage of cell death % 48h, Caco-2 (Caco-2 cells): 49.3803%
%Cell death Caco-2 (Caco-2 cells; time not given, text says 48 h): 49.4%

Structure (SMILES): CO[C@H]1C[C@H](O[C@H]2[C@H](C)O[C@@H](O[C@@H]3/C(C)=C/C[C@@H]4C[C@@H](C[C@]5(C=C[C@H](C)[C@@H](C6CCCCC6)O5)O4)OC(=O)[C@@H]4C=C(C)[C@@H](O)[C@H]5OC/C(=C\C=C\[C@@H]3C)[C@]54O)C[C@@H]2OC)O[C@@H](C)[C@@H]1O [Doramectin]
BRET reduction on NIH-3T3 [1, 2]: 36.2699
BRET reduction on NIH-3T3 [1, 3]: 36.2699
Percentage of cell death % 24h NIH3t3 (NIH-3T3 cells; 20 µM, 24 h): 51.7189%
Percentage of cell death % 48h, NIH3T3 (NIH-3T3 cells): 58.749%
Percentage of cell death % 24h HT-29 (HT-29 cells; 20 µM, 24 h): 11.0069%
Percentage of cell death % 48h, HT-29 (HT-29 cells; HT-29, 48h, 20 μM): 51.5756%
%Cell death HT-29 (HT-29 cells; HT-29): 51.6%
%Cell death Caco-2 (Caco-2 cells): 32.3%

Structure (SMILES): CCCCCCCCCCCCCCCC[N+](C)(C)C [Cetrimonium Bromide (CTAB), Cetrimonium Bromide]
inhibition at 20 µM [1]: 35.4%
BRET reduction on NIH-3T3 [1, 2]: 35.3912
cytotoxicity at 20 µM (NIH-3T3 cells): 73.5%
Percentage of cell death % 48h, NIH3T3 (NIH-3T3 cells): 66.4515%
cytotoxicity at 20 µM (HT-29 cells; HT-29, 24 h, read-out: Percentage of cell death % 24h HT-29): 11.5%
cytotoxicity at 20 µM (HT-29 cells; HT-29, 48 h, read-out: Percentage of cell death % 48h, HT-29): 55.4%
Percentage of cell death % 24h CACO-2 (Caco-2 cells): 19.5542%
Percentage of cell death % 48h, Caco-2 (Caco-2 cells): 50.4821%
